Measured values from PMC10739329, “Correlation of bioactive marker compounds of an orally applied Morus alba root bark extract with toxicity and efficacy in BALB/c mice” (Frontiers in Pharmacology, 2023).
Several values for one entry are separate records, joined by “and”; a condition that tells them apart may be missing. Equal entries are not always repeated. Where two headings read alike, the source gives them in different places.

Tests used:
[1] = MS/MS search for metabolites of sanggenons C and D in serum samples; format: in vivo, BALB/c mice
Protocol: In the present study, concentration of bioactive sanggenons C and D was determined in serum and tissue samples and correlated with the administered the doses of MA60. […] Already during dose finding and acute toxicity studies, a high variation in serum concentrations of the selected marker compounds was detected within all three dose groups (30, 100, and 300 mg/kg). No dose dependency could be observed regarding the serum concentrations. This might be due to i) inhomogeneities in the CMC suspension of the MA60 extract, ii) the inter-individual differences in the resorption of sanggenons, or iii) the formation of sanggenon metabolites: • (i) For oral gavage administration, MA60 was suspended in 0.3% carboxymethyl cellulose (CMC) as vehicle. This is based on literature data, where even a higher dose of up to 400 mg/kg of a 70% EtOH extract of M. alba root bark ([Lim et al., 2013]) was previously administered to mice per gavage feeding. […] In the present study, an MS/MS analysis was conducted to also search for metabolites of the selected marker compounds sanggenon C and sanggenon D. The search included (di)glucuronides and hydroxylated metabolites as well as further conjugates such as sulfated metabolites.

[2] = UPLC-ESI-MS quantitation of sanggenons C and D in serum and tissue samples, acute toxicity study; format: in vivo, BALB/c mice; conditions: for concentration at 3 h: BALB/c, mouse, serum, oral; for serum concentration: one (efficacy study) and three (acute toxicity study) hours after the last oral MA60 administration
[3] = in vivo; cited from earlier work
[4] = MA60 30 mg/kg oral, samples 26-30 in order, 3 h after last treatment
[5] = MA60 100 mg/kg oral, samples 31-35 in order, 3 h after last treatment
[6] = MA60 300 mg/kg oral, samples 36-40 in order, 3 h after last treatment
[7] = MA60 100 mg/kg oral once daily for seven days, samples 68-71 in order, sacrificed 24 h after last application

Molecule: CC(C)=CC[C@]12Oc3cc(O)c([C@H]4C=C(C)C[C@H](c5ccc(O)cc5O)[C@H]4C(=O)c4ccc(O)cc4O)c(O)c3C(=O)[C@@]1(O)Oc1cc(O)ccc12 [sanggenon C]
- metabolites ((di)glucuronides, hydroxylated, sulfated conjugates) in serum samples ([1]; mouse, in vivo, po): neither the corresponding masses nor the phase-II-conjugates could be detected
- serum concentrations of sanggenon C (group) (MA60 100 mg/kg oral, after 24 h (#68-#71), below this value or not detectable): below 2.77 ng/mL
- concentration at 3 h ([2]; 30 mg/kg, MA60 30 mg/kg oral once daily 7 days, 3 h after last treatment, read-out: amount of sanggenon C in serum (dose group)): < 9.1 ng/mL
- concentration at 3 h ([2]; 30 mg/kg, MA60 30 mg/kg oral, samples 26-30 in order, 3 h after last treatment, read-out: quantified amount of sanggenon C serum, individual samples): 4.97 ng/mL
- concentration at 3 h ([2]; 100 mg/kg, MA60 100 mg/kg oral once daily 7 days, 3 h after last treatment, read-out: amount of sanggenon C in serum (dose group)): 7.94 to 31.5 ng/mL
- concentration at 3 h ([2]; 300 mg/kg, MA60 300 mg/kg oral once daily 7 days, 3 h after last treatment, read-out: amount of sanggenon C in serum (dose group)): 21.2 to 227 ng/mL
- concentration at 3 h ([2]; mice sacrificed 3 hours after the last application, read-out: average serum concentration of sanggenon C): < 2 ng/mL
- quantified amount of sanggenon C serum, individual samples [2, 4]: n.f. (3×) and 9.10 ng/mL
- quantified amount of sanggenon C serum, individual samples [2, 5]: 7.94 ng/mL and 9.28 ng/mL and 31.53 ng/mL and 11.17 ng/mL and 13.02 ng/mL
- quantified amount of sanggenon C serum, individual samples [2, 6]: 25.74 ng/mL and 21.21 ng/mL and 227.26 ng/mL and 24.13 ng/mL and 103.00 ng/mL
- serum concentration [2]: less than 1%

Molecule: sanggenon D
- metabolites ((di)glucuronides, hydroxylated, sulfated conjugates) in serum samples ([1]; MS/MS analysis after oral MA60): neither the corresponding masses nor the phase-II-conjugates could be detected
- quantified amount of sanggenon D liver, individual samples [7]: n.f.
- quantified amount of sanggenon D lung, individual samples [7]: n.f.
- sanggenon D in liver (MA60 100 mg/kg oral, after 24 h): could not be determined
- sanggenon D in liver (MA60 100 mg/kg oral, mice sacrificed after 1 h): high amount
- quantified amount of sanggenon D lung, individual samples (MA60 100 mg/kg oral, samples 64-67 in order, sacrificed 1 h after treatment): n.f.
- quantified amount of sanggenon D liver, individual samples [2, 4]: n.f.
- quantified amount of sanggenon D lung, individual samples [2, 4]: n.f. (4×) and 1,005.12 ng/mL
- quantified amount of sanggenon D liver, individual samples [2, 5]: n.f. and 34.18 ng/mL and 26.97 ng/mL
- quantified amount of sanggenon D lung, individual samples [2, 5]: n.f. (2×) and 2,980.27 ng/mL and 343.27 ng/mL and 10,306.71 ng/mL
- quantified amount of sanggenon D liver, individual samples [2, 6]: 70.13 ng/mL and 89.18 ng/mL and 979.27 ng/mL and 996.87 ng/mL and 447.53 ng/mL
- quantified amount of sanggenon D lung, individual samples [2, 6]: n.f.
- sanggenon D concentration in liver tissues ([2]; high dose group (300 mg/kg), #38 and #39): ~1 µg/mL
- sanggenon D in liver samples ([2]; low dose group (MA60 30 mg/kg oral)): not detected
- serum concentration [2]: less than 1%

Molecule: C=C(C)[C@H](CC=C(C)C)Cc1c(O)cc(OC)c(C(=O)/C=C/c2ccc(O)cc2O)c1O [kuraridin]
- metabolites found in rat serum [3]: mono- and di-glucuronides as well as hydroxylated derivatives
